Laboratory results as given in US11413297B2, “Therapies for treating and preventing chronic rhinosinusitis” (Avanti Polar Lipids, LLC, priority 2017, dated 2022).

Columns and labels:
[1] = test system: preformed S. aureus (ATCC BAA-1720) biofilms; experiment: Disruption of preformed S. aureus biofilm, crystal violet staining (Example 1); type: cell-based
Method: We performed in vitro studies of the capacity of phospholipids together with antibiotics to disrupt preformed bacterial biofilms. The tests were conducted as follows. Biofilm formation was obtained by culturing (1) S. aureus in tryptic soy broth media supplemented with 5% glucose; and (2) P. aeruginosa in cation-adjusted Mueller Hinton Broth after incubation at 37 degrees C. for 24 hours in 96 well plates. The medium was then removed and replaced by treatment solutions of antibiotics, antibiotics+phospholipids, phospholipids alone, or control solutions. Phospholipid concentration used in the assays was 512 μg/ml although in some studies, was […]. After 24 hours at 37 degrees C., media was removed and fresh medium was added and the 96-well plates incubated at 37 degrees C. for 24 hours. Media were then removed and biofilm at the base of the wells was stained with crystal violet and quantitated.

[2] = test system: preformed P. aeruginosa biofilms; experiment: Disruption of preformed P. aeruginosa biofilms, crystal violet (Example 3); type: cell-based; details: in combination with gentamicin, phospholipid 512, 1024 and 2048 μg/ml
Method: We performed in vitro studies of the capacity of phospholipids together with antibiotics to disrupt preformed bacterial biofilms. The tests were conducted as follows. Biofilm formation was obtained by culturing P. aeruginosa in cation-adjusted Mueller Hinton Broth after incubation at 37 degrees C. for 24 hours in 96 well plates. The medium was then removed and replaced by treatment solutions of gentamicin, phospholipids plus gentamicin, or control solutions. Either three or four different phospholipids (MAPCHO-10, MAPCHO-12, MAPCHO-14, and MAPCHO-16) were tested at three different phospholipid test concentrations (512 μg/ml, 1024 μg/ml, and 2048 μg/ml). After 24 hours at 37 degrees C., media was removed and fresh medium was added and the 96-well plates were incubated at 37 degrees C. for either 6 hours or 24 hours. Media were then removed and biofilm at the base of the wells was stained with crystal violet and quantitated.

## CCCCCCCCCCCCOP(=O)([O-])OCC[N+](C)(C)C [MAPCHO-12, N-dodecylphosphocholine]
[1]; agent alone (gentamicin alone or phospholipid alone)
  disruption of preformed biofilm of S. aureus: did not disrupt the biofilm
[1]; phospholipid together with gentamicin, FIG. 2
  disruption of preformed biofilm of S. aureus: disrupt preformed biofilm
[1]; phospholipid/gentamicin combination
  sterilization of S. aureus on disruption of the biofilm: sterilized
[2]; 6 h time point, FIGS. 4B-4D
  disruption of preformed P. aeruginosa biofilms: disruption of P. aeruginosa biofilms occurs
[2]; 24 h time point, FIGS. 5A-5C
  eradication of preformed P. aeruginosa biofilms: nearly complete eradication
